Where a SMILES comes first, the peptide text is derived from it. [ ]: non-standard residue; d: D form. The star is where a group is joined. Octanoyl = CCCCCCCC(=O)*; Abu = CC[C@H](N)C(=O)O; Aib = CC(C)(N)C(=O)O

The text below walks through data of US9062124B2, “GIP-based mixed agonists for treatment of metabolic disorders and obesity” (priority 2008, dated 2015).

Holding throughout (assay type): cell-based
One assay concerns the target T1, glucagon receptor (Homo sapiens, UniProt P47871).
T1 construct: expressed in transfected cells; host or cells: HEK293
In words: cAMP synthesis functional assay (firefly luciferase reporter in HEK293 cells), glucagon receptor. The conditions noted are these: for EC50: Glucagon Receptor EC50, cAMP luciferase reporter assay as in Example 16; for Glucagon Receptor relative activity: relative to the standard (Std.) EC50 of the same run. (In general: In a reporter assay the amount or activity of a reporter protein is the signal.)

In a further assay the target is T2, GLP-1 receptor (Homo sapiens, UniProt P43220).
T2 construct: expressed in transfected cells; host or cells: HEK293
T2 sequence (P43220 24-463, species assumed): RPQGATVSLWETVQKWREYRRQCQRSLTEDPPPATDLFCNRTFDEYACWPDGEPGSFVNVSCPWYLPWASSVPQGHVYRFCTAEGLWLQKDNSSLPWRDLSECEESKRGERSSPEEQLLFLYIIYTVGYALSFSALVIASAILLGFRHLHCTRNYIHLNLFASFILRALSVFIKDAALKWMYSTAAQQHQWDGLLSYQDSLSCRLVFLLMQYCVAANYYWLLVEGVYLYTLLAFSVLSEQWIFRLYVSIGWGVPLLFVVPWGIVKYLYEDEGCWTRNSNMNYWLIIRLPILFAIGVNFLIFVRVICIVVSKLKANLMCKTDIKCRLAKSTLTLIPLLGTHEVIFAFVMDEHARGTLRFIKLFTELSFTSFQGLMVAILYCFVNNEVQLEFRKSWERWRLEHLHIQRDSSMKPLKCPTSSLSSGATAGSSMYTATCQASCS
In words: cAMP synthesis functional assay (firefly luciferase reporter in HEK293 cells), GLP-1 receptor. As to conditions: for GLP-1 Receptor relative activity: relative to the standard (Std.) EC50 of the same run.

Another assay concerns the target T3, GIP receptor (Homo sapiens, UniProt P48546).
T3 construct: expressed in transfected cells; host or cells: HEK293
T3 sequence (P48546 22-466): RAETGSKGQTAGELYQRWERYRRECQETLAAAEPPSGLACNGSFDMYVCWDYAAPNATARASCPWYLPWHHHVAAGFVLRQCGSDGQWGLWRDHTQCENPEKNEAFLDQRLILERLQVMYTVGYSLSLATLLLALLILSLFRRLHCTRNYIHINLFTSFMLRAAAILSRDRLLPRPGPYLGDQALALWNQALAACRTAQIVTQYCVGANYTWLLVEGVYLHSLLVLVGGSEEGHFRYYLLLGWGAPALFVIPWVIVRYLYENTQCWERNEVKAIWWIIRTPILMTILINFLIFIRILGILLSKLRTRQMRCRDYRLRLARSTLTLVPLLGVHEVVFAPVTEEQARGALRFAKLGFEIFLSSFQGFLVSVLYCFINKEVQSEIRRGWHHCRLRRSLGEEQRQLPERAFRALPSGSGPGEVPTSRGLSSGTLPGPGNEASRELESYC
In words: cAMP synthesis functional assay (firefly luciferase reporter in HEK293 cells), GIP receptor. As to conditions: relative to the standard (Std.) EC50 of the same run.

The test system of assay [1] is glucagon receptor, GLP-1 receptor or GIP receptor. The experiment in a line: Agonist profile across receptors assigned from the cAMP reporter assay data. The conditions noted are these: assigned from the in vitro EC50 data of Tables 1-4.

T1 sequence (P47871 26-477): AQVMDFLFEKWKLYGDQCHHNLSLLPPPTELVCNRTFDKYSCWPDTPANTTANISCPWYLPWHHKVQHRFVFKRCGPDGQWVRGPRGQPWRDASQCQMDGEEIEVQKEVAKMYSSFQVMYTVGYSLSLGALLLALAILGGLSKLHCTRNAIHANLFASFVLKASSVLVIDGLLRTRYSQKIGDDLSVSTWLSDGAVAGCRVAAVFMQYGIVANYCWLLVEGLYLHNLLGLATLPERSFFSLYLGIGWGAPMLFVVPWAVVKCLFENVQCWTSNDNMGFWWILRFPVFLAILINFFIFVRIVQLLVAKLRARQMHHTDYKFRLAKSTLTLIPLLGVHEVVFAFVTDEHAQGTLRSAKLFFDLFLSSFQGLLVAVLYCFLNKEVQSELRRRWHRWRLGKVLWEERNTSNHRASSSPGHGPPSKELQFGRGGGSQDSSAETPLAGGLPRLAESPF

Regarding `CCCCCCCCCCCCCC(=O)NCCCC[C@H](NC(=O)[C@H](CO)NC(=O)[C@@H]1CCCN1C(=O)[C@@H]1CCCN1C(=O)[C@@H]1CCCN1C(=O)[C@H](C)NC(=O)CNC(=O)[C@H](CO)NC(=O)[C@H](CO)NC(=O)[C@@H]1CCCN1C(=O)CNC(=O)CNC(=O)[C@H](C)NC(=O)[C@H](CC(C)C)NC(=O)[C@H](CC(C)C)NC(=O)[C@H](Cc1c[nH]c2ccccc12)NC(=O)[C@H](CS)NC(=O)[C@@H](NC(=O)[C@H](Cc1ccccc1)NC(=O)[C@H](CCC(=O)O)NC(=O)C(C)(C)NC(=O)[C@H](C)NC(=O)[C@H](C)NC(=O)[C@H](CCC(N)=O)NC(=O)[C@H](CCCCN)NC(=O)[C@H](CC(=O)O)NC(=O)[C@H](CC(C)C)NC(=O)[C@H](Cc1ccc(O)cc1)NC(=O)[C@@H](NC(=O)[C@H](CO)NC(=O)[C@H](Cc1ccc(O)cc1)NC(=O)[C@H](CC(=O)O)NC(=O)[C@H](CO)NC(=O)[C@@H](NC(=O)[C@H](Cc1ccccc1)NC(=O)[C@@H](NC(=O)CNC(=O)[C@H](CCC(=O)O)NC(=O)C(C)(C)NC(=O)[C@@H](N)Cc1ccc(O)cc1)[C@@H](C)O)[C@@H](C)O)[C@@H](C)CC)C(C)C)C(N)=O` [mt-306], at glucagon receptor, the response was half-maximal at 1.5 nM (EC50) and the “Glucagon Receptor relative activity” value is listed as 3.20%. On GLP-1 receptor, the “GLP-1 Receptor relative activity” value was found to be 80.60%. In addition, the “GIP Receptor relative activity” value on GIP receptor is listed as 254.69%. For the same compound, the “receptor activity profile (glucagon / GLP-1 / GIP agonism)” value in assay [1] is “exhibited activity at the GIP, GLP-1, and glucagon receptors”.

`CCCCCCCCCCCCCCCCCC(=O)NCCCC[C@H](NC(=O)[C@H](CO)NC(=O)[C@@H]1CCCN1C(=O)[C@@H]1CCCN1C(=O)[C@@H]1CCCN1C(=O)[C@H](C)NC(=O)CNC(=O)[C@H](CO)NC(=O)[C@H](CO)NC(=O)[C@@H]1CCCN1C(=O)CNC(=O)CNC(=O)[C@H](C)NC(=O)[C@H](CC(C)C)NC(=O)[C@H](CC(C)C)NC(=O)[C@H](Cc1c[nH]c2ccccc12)NC(=O)[C@H](CS)NC(=O)[C@@H](NC(=O)[C@H](Cc1ccccc1)NC(=O)[C@H](CCC(=O)O)NC(=O)C(C)(C)NC(=O)[C@H](C)NC(=O)[C@H](C)NC(=O)[C@H](CCC(N)=O)NC(=O)[C@H](CCCCN)NC(=O)[C@H](CC(=O)O)NC(=O)[C@H](CC(C)C)NC(=O)[C@H](Cc1ccc(O)cc1)NC(=O)[C@@H](NC(=O)[C@H](CO)NC(=O)[C@H](Cc1ccc(O)cc1)NC(=O)[C@H](CC(=O)O)NC(=O)[C@H](CO)NC(=O)[C@@H](NC(=O)[C@H](Cc1ccccc1)NC(=O)[C@@H](NC(=O)CNC(=O)[C@H](CCC(=O)O)NC(=O)C(C)(C)NC(=O)[C@@H](N)Cc1ccc(O)cc1)[C@@H](C)O)[C@@H](C)O)[C@@H](C)CC)C(C)C)C(N)=O` [mt-307]: on glucagon receptor, a half-maximal response (EC50) required 0.288 nM and the “Glucagon Receptor relative activity” value was found to be 16.61%. In addition, the “GLP-1 Receptor relative activity” value at GLP-1 receptor is reported as 113.29%. Also, the “GIP Receptor relative activity” value at GIP receptor is 128.35%. Also, the “receptor activity profile (glucagon / GLP-1 / GIP agonism)” value in assay [1] is “exhibited activity at the GIP, GLP-1, and glucagon receptors”.

Turning to `CCCCCCCC(=O)NCCCC[C@H](NC(=O)[C@H](CO)NC(=O)[C@@H]1CCCN1C(=O)[C@@H]1CCCN1C(=O)[C@@H]1CCCN1C(=O)[C@H](C)NC(=O)CNC(=O)[C@H](CO)NC(=O)[C@H](CO)NC(=O)[C@@H]1CCCN1C(=O)CNC(=O)CNC(=O)[C@H](C)NC(=O)[C@H](CC(C)C)NC(=O)[C@H](CC(C)C)NC(=O)[C@H](Cc1c[nH]c2ccccc12)NC(=O)[C@H](CC(N)=O)NC(=O)[C@@H](NC(=O)[C@H](Cc1ccccc1)NC(=O)[C@H](CCC(=O)O)NC(=O)C(C)(C)NC(=O)[C@H](C)NC(=O)[C@H](C)NC(=O)[C@H](CCC(N)=O)NC(=O)[C@H](CCCCN)NC(=O)[C@H](CC(=O)O)NC(=O)[C@H](CC(C)C)NC(=O)[C@H](Cc1ccc(O)cc1)NC(=O)[C@@H](NC(=O)[C@H](CO)NC(=O)[C@H](Cc1ccc(O)cc1)NC(=O)[C@H](CC(=O)O)NC(=O)[C@H](CO)NC(=O)[C@@H](NC(=O)[C@H](Cc1ccccc1)NC(=O)[C@@H](NC(=O)CNC(=O)[C@H](CCC(N)=O)NC(=O)C(C)(C)NC(=O)[C@@H](N)Cc1ccc(O)cc1)[C@@H](C)O)[C@@H](C)O)[C@@H](C)CC)C(C)C)C(N)=O` [mt-323] (H-Y[Aib]QGTFTSDYSIYLDKQAA[Aib]EFVNWLLAGGPSSGAPPPSK(Octanoyl)-NH2; N-terminus assumed), on glucagon receptor, the EC50 worked out at 0.217 nM and the “Glucagon Receptor relative activity” value was 39.00%. A half-maximal response on GLP-1 receptor (GLP-1 Receptor EC50, cAMP luciferase reporter assay as in Example 16) (EC50) required 0.0571 nM. On GLP-1 receptor, the “GLP-1 Receptor relative activity” value turned out to be 35.55%. Also, at GIP receptor, the “GIP Receptor relative activity” value is 122.62%. Also, the “receptor activity profile (glucagon / GLP-1 / GIP agonism)” value in assay [1] is “exhibited activity at the GIP, GLP-1, and glucagon receptors”.

`CC[C@H](C)[C@H](NC(=O)[C@H](CO)NC(=O)[C@H](Cc1ccc(O)cc1)NC(=O)[C@H](CC(=O)O)NC(=O)[C@H](CO)NC(=O)[C@H](CO)NC(=O)[C@H](Cc1ccccc1)NC(=O)[C@@H](NC(=O)CNC(=O)[C@H](CCC(N)=O)NC(=O)C(C)(C)NC(=O)[C@@H](N)Cc1ccc(O)cc1)[C@@H](C)O)C(=O)N[C@@H](Cc1ccc(O)cc1)C(=O)N[C@@H](CC(C)C)C(=O)N[C@@H](CC(=O)O)C(=O)N[C@@H](CCCCN)C(=O)N[C@@H](CCC(N)=O)C(=O)N[C@@H](C)C(=O)N[C@@H](C)C(=O)NC(C)(C)C(=O)N[C@@H](CCC(=O)O)C(=O)N[C@@H](Cc1ccccc1)C(=O)N[C@H](C(=O)N[C@@H](CC(N)=O)C(=O)N[C@@H](Cc1c[nH]c2ccccc12)C(=O)N[C@@H](CC(C)C)C(=O)N[C@@H](CC(C)C)C(=O)N[C@@H](C)C(=O)NCC(=O)NCC(=O)N1CCC[C@H]1C(=O)N[C@@H](CO)C(=O)N[C@@H](CO)C(=O)NCC(=O)N[C@@H](C)C(=O)N1CCC[C@H]1C(=O)N1CCC[C@H]1C(=O)N1CCC[C@H]1C(=O)N[C@@H](CO)C(=O)N[C@@H](CS)C(N)=O)C(C)C` [mt-324] (H-Y[Aib]QGTFSSDYSIYLDKQAA[Aib]EFVNWLLAGGPSSGAPPPSC-NH2; N-terminus assumed): the “Glucagon Receptor relative activity” value on glucagon receptor was 6.41%. Further, the “GLP-1 Receptor relative activity” value at GLP-1 receptor was found to be 9.68%. For the same compound, the “GIP Receptor relative activity” value at GIP receptor is 30.23%. Moreover, the “receptor activity profile (glucagon / GLP-1 / GIP agonism)” value in assay [1] is “exhibited activity at the GIP, GLP-1, and glucagon receptors”.

Regarding `CC[C@H](NC(=O)[C@H](Cc1ccccc1)NC(=O)[C@@H](NC(=O)CNC(=O)[C@H](CCC(N)=O)NC(=O)C(C)(C)NC(=O)[C@@H](N)Cc1ccc(O)cc1)[C@@H](C)O)C(=O)N[C@@H](CO)C(=O)N[C@@H](CC(=O)O)C(=O)N[C@@H](Cc1ccc(O)cc1)C(=O)N[C@@H](CO)C(=O)N[C@H](C(=O)N[C@@H](Cc1ccc(O)cc1)C(=O)N[C@@H](CC(C)C)C(=O)N[C@@H](CC(=O)O)C(=O)N[C@@H](CCCCN)C(=O)N[C@@H](CCC(N)=O)C(=O)N[C@@H](C)C(=O)N[C@@H](C)C(=O)NC(C)(C)C(=O)N[C@@H](CCC(=O)O)C(=O)N[C@@H](Cc1ccccc1)C(=O)N[C@H](C(=O)N[C@@H](CC(N)=O)C(=O)N[C@@H](Cc1c[nH]c2ccccc12)C(=O)N[C@@H](CC(C)C)C(=O)N[C@@H](CC(C)C)C(=O)N[C@@H](C)C(=O)NCC(=O)NCC(=O)N1CCC[C@H]1C(=O)N[C@@H](CO)C(=O)N[C@@H](CO)C(=O)NCC(=O)N[C@@H](C)C(=O)N1CCC[C@H]1C(=O)N1CCC[C@H]1C(=O)N1CCC[C@H]1C(=O)N[C@@H](CO)C(=O)N[C@@H](CS)C(N)=O)C(C)C)[C@@H](C)CC` [mt-325] (H-Y[Aib]QGTF[Abu]SDYSIYLDKQAA[Aib]EFVNWLLAGGPSSGAPPPSC-NH2; N-terminus assumed), the “Glucagon Receptor relative activity” value at glucagon receptor was found to be 86.45%. Moreover, the “GLP-1 Receptor relative activity” value at GLP-1 receptor turned out to be 0.83%. The “GIP Receptor relative activity” value on GIP receptor came to 111.43%. Also, the “receptor activity profile (glucagon / GLP-1 / GIP agonism)” value in assay [1] is “exhibited activity at the glucagon and GIP receptors, but not at the GLP-1 receptor”.

The term EC50 denotes the midpoint of the concentration-response curve. A low value points to a more potent agent.
